The test system of the assay is IL-1β release, THP-1 cells. Put plainly: IL-1β release assay in differentiated THP-1 cells stimulated with BzATP (Example 9). The assay is classed as cell-based. The following applies: Homo sapiens; for inhibition at 0.3 µM: 0.3 μM compound ("+" symbols), differentiated THP-1 cells, 250 uM BzATP, read-out: IL-1β% Inhib. @ 0.3 or 0.1 μM; for IC50: THP-1 cells, BzATP 250 uM, four parameter logistic fit. The protocol: THP-1 cells (ATCC Cat # 285-IF-100) are plated in 96 well plates at a concentration of 200,000 cells per well and allowed to differentiate in RPMI-1640 media (ATCC Cat # 30-2001) containing 10% FBS, 100 IU/mL penicillin, 100 ug/mL streptomycin, 100 ng/mL LPS and 100 ng/mL IFN-γ for 16 hours. Following differentiation, the cells are treated for an additional 2 hours in RPMI-1640 media containing 100 IU/mL penicillin, 100 ug/mL streptomycin and fresh LPS at 100 ng/mL. The cells are then pretreated for 30 minutes with the compound of interest at the appropriate concentration in RPMI media containing 100 IU/mL penicillin, 100 ug/mL streptomycin. Following the pretreatment 2′,3′-O-(4-benzoylbenzoyl)-adenosine 5′-triphosphate (Sigma Aldrich Cat # B6396) is added to a final concentration of 250 uM and the cells are incubated for an additional 45 minutes. 30 uL of cell supernatant is then collected and IL-1β levels determined via ELISA (R&D systems Cat. # HSLB50) according to manufacturer's recommendations using the Tecan Safire plate reader. Background adjusted IL-1β levels of drug treated and non-treated cells are used to calculate the percent inhibition.
The following compounds have been or can be prepared according to the synthetic methods described above. For the purpose of Table 1 below, activity of each compound, which can be determined using the IL-1β assay method described in Example 9, is expressed as follows: […]
The compounds set forth in Table 1 were tested for activity in a cellular model as described herein. Specifically, cells were pretreated with differing amounts of the compound under test and released IL-1β determined as in Example 9, above. Measurements were made and IC50 values, presented in Table 2, below, were determined by fitting the data to a four parameter logistic equation using GraphPad Prism software (GraphPad Software, Inc). The equation may be expressed by the following formula:
Y=Bottom+(Top−Bottom)/(1+10̂((Log EC50−X)*HillSlope))
Where X is the logarithm of concentration, Y is the response and Y starts at Bottom and goes to Top with a sigmoid shape.

Data on 40 molecules can be found in patent US20100298285A1, “Biclycloheteroaryl Compounds as P2x7 Modulators and Uses Thereof” (priority 2006, published 2010).

The structures appear in SMILES notation.

For `C[C@H](NC(=O)OC(C)(C)C)C(=O)N1CCc2c(cccc2NC(=O)Cc2ccc(C(F)(F)F)c(F)c2)C1` [Compound 3048], the inhibition at 0.3 µM was in the range of 0 to 25% and the IC50 was determined as 473 nM.
As to `CS(=O)(=O)N1CCc2c(ccc(Cl)c2NC(=O)Cc2ccc(C(F)(F)F)cc2)C1` [Compound 3050], the inhibition at 0.3 µM lay in the range of 26 to 50% and the 50% inhibitory concentration (IC50) was 492 nM.
In the case of `O=C(Cc1ccc(C(F)(F)F)c(F)c1)Nc1cccc2c1CCN(C(=O)[C@H]1CCCN1)C2` [Compound 3051], the inhibition at 0.3 µM was no less than 76% and the IC50 amounted to 73 nM.
Consider `O=C(Cc1ccc(C(F)(F)F)c(F)c1)Nc1cccc2c1CCN(C(=O)COC1CCNCC1)C2` [Compound 3052], for which the inhibition at 0.3 µM lay in the range of 0 to 25% and inhibition was half-maximal at 890 nM (IC50).
In the same order, the values of `N#CN1CCc2c(cccc2NC(=O)Cc2ccc(C(F)(F)F)c(F)c2)C1` [Compound 3053, N-(2-Cyano-1,2,3,4-tetrahydro-isoquinolin-5-yl)-2-(3-fluoro-4-trifluoromethyl-phenyl)-acetamide] are 0 to 25% and greater than 1000 nM.
`C[C@H](N)C(=O)N1CCc2c(cccc2NC(=O)Cc2ccc(C(F)(F)F)c(F)c2)C1` [Compound 3054]: the inhibition at 0.3 µM was in the range of 0 to 25% and the IC50 was determined as 684 nM.
For the molecule `O=C(Cc1ccc(C(F)(F)F)c(F)c1)Nc1cccc2c1CCN(C(=O)[C@@H]1CCCN1)C2` [Compound 3055], the inhibition at 0.3 µM is 51 to 75% and the IC50 is 182 nM.
On to `N[C@@H](Cc1ccccc1)C(=O)N1CCc2c(cccc2NC(=O)Cc2ccc(C(F)(F)F)c(F)c2)C1` [Compound 3056, N-[2-((S)-2-Amino-3-phenyl-propionyl)-1,2,3,4-tetrahydro-isoquinolin-5-yl]-2-(3-fluoro-4-trifluoromethyl-phenyl)-acetamide], for which the inhibition at 0.3 µM was no less than 76% and 56.3 nM corresponded to half-maximal inhibition (IC50).
Turning to `O=C(Cc1ccc(C(F)(F)F)c(F)c1)Nc1cccc2c1CCN(CC(O)CCl)C2` (centres unmarked) [Compound 3057, N-[2-(3-Chloro-2-hydroxy-propyl)-1,2,3,4-tetrahydro-isoquinolin-5-yl]-2-(3-fluoro-4-trifluoromethyl-phenyl)-acetamide], the inhibition at 0.3 µM fell in the range of 26 to 50% and half-maximal inhibition (IC50) was put at 428 nM.
As to `CCC(O)CN1CCc2c(cccc2NC(=O)Cc2ccc(C(F)(F)F)c(F)c2)C1` (centres unmarked) [Compound 3058, 2-(3-Fluoro-4-trifluoromethyl-phenyl)-N-[2-(2-hydroxy-butyl)-1,2,3,4-tetrahydro-isoquinolin-5-yl]-acetamide], the inhibition at 0.3 µM is 26 to 50% and it took 338 nM to reach half-maximal inhibition (IC50).
Regarding `CC(c1ccc(F)cc1)N1CCc2c(cccc2NC(=O)Cc2ccc(C(F)(F)F)c(F)c2)C1` (centres unmarked) [Compound 3059, N-{2-[1-(4-Fluoro-phenyl)-ethyl]-1,2,3,4-tetrahydro-isoquinolin-5-yl}-2-(3-fluoro-4-trifluoromethyl-phenyl)-acetamide], the inhibition at 0.3 µM is 51 to 75% and the IC50 stood at 256 nM.
Take `Cc1ccc2c(c1NC(=O)Cc1ccc(C(F)(F)F)cc1)CCN(C(=O)[C@H]1CCCN1)C2` [Compound 3060, N-[6-Methyl-2-((R)-pyrrolidine-2-carbonyl)-1,2,3,4-tetrahydro-isoquinolin-5-yl]-2-(4-trifluoromethyl-phenyl)-acetamide]: the inhibition at 0.3 µM was no less than 76% and 64.4 nM corresponded to half-maximal inhibition (IC50).
With `Cc1ccc2c(c1NC(=O)Cc1ccc(C(F)(F)F)c(F)c1)CCN(C(=O)[C@H]1CCCN1)C2` [Compound 3061, 2-(3-Fluoro-4-trifluoromethyl-phenyl)-N-[6-methyl-2-((R)-pyrrolidine-2-carbonyl)-1,2,3,4-tetrahydro-isoquinolin-5-yl]-acetamide], the inhibition at 0.3 µM was no less than 76% and 35.1 nM corresponded to half-maximal inhibition (IC50).
As for `Cc1ccc2c(c1NC(=O)Cc1cccc(C(F)(F)F)c1F)CCN(C(=O)[C@H]1CCCN1)C2` [Compound 3062], the inhibition at 0.3 µM is no less than 76% and half-maximal inhibition (IC50) was put at 76.7 nM.
In the same order, the values of `CCCC(O)CN1CCc2c(cccc2NC(=O)Cc2ccc(C(F)(F)F)c(F)c2)C1` (centres unmarked) [Compound 3063] are 26 to 50% and 673 nM.
`O=C(Cc1ccc(C(F)(F)F)c(F)c1)Nc1cccc2c1CCN(CC(O)CF)C2` (centres unmarked) [Compound 3064]: the inhibition at 0.3 µM was 0 to 25% and the IC50 is greater than 1000 nM.
On to `O=C(Cc1ccc(C(F)(F)F)c(F)c1)Nc1cccc2c1CCN(CC(O)c1ccc(F)cc1)C2` (centres unmarked) [Compound 3065, N-{2-[2-(4-Fluoro-phenyl)-2-hydroxy-ethyl]-1,2,3,4-tetrahydro-isoquinolin-5-yl}-2-(3-fluoro-4-trifluoromethyl-phenyl)-acetamide], for which the inhibition at 0.3 µM was 51 to 75% and the midpoint of inhibition, the IC50, lay at 206 nM.
`O=C(Cc1ccc(C(F)(F)F)c(F)c1)Nc1cccc2c1CCN(CC(O)c1ccc(Cl)cc1)C2` (centres unmarked) [Compound 3066]: the inhibition at 0.3 µM is 51 to 75% and the IC50 was 219 nM.
Take `O=C(Cc1ccc(C(F)(F)F)c(F)c1)Nc1cccc2c1CCN(CC(O)C(O)(c1ccccc1)C(F)(F)F)C2` (centres unmarked) [Compound 3067]: the inhibition at 0.3 µM was no less than 76% and it took 150 nM to reach half-maximal inhibition (IC50).
In the case of `O=C(Cc1ccc(C(F)(F)F)c(F)c1)Nc1c(Cl)ccc2c1CCN(C(=O)c1c(Cl)cccc1Cl)C2` [Compound 3068], the inhibition at 0.3 µM was 0 to 25%.
In the case of `CC(=O)N1CCc2c(ccc(Cl)c2NC(=O)Cc2ccc(C(F)(F)F)c(F)c2)C1` [Compound 3069], the inhibition at 0.3 µM was in the range of 0 to 25%.
For the molecule `O=C(Cc1ccc(C(F)(F)F)c(F)c1)Nc1c(Cl)ccc2c1CCN(C(=O)c1ccc(Cl)cc1)C2` [Compound 3073], the inhibition at 0.3 µM was 0 to 25%.
In the case of `Cc1cccc(C(=O)N2CCc3c(ccc(Cl)c3NC(=O)Cc3ccc(C(F)(F)F)c(F)c3)C2)c1` [Compound 3074], the inhibition at 0.3 µM lay in the range of 26 to 50%.
Turning to `O=C(Cc1ccc(C(F)(F)F)c(F)c1)Nc1c(Cl)ccc2c1CCN(C(=O)CCC1CCCC1)C2` [Compound 3075], the inhibition at 0.3 µM lay within 0 to 25%.
As for `COc1ccc(C(=O)N2CCc3c(ccc(Cl)c3NC(=O)Cc3ccc(C(F)(F)F)c(F)c3)C2)cc1` [Compound 3076], the inhibition at 0.3 µM lay in the range of 0 to 25%.
Turning to `O=C(Cc1ccc(C(F)(F)F)c(F)c1)Nc1c(Cl)ccc2c1CCN(C(=O)c1ccc(-c3ccccc3)cc1)C2` [Compound 3077], the inhibition at 0.3 µM lay within 0 to 25%.
Turning to `O=C(Cc1ccc(C(F)(F)F)c(F)c1)Nc1c(Cl)ccc2c1CCN(C(=O)c1cc(F)c(F)cc1F)C2` [Compound 3078], the inhibition at 0.3 µM was 0 to 25%.
For the molecule `O=C(Cc1ccc(C(F)(F)F)c(F)c1)Nc1c(Cl)ccc2c1CCN(C(=O)c1cccnc1)C2` [Compound 3079], the inhibition at 0.3 µM is 0 to 25%.
Consider `O=C(Cc1ccc(C(F)(F)F)c(F)c1)Nc1c(Cl)ccc2c1CCN(C(=O)C1CCCC1)C2` [Compound 3080], for which the inhibition at 0.3 µM lay within 51 to 75%.
Same read-out and setting: the figure for `COc1ccc(OC)c(CC(=O)N2CCc3c(ccc(Cl)c3NC(=O)Cc3ccc(C(F)(F)F)c(F)c3)C2)c1` [Compound 3081] is 0 to 25%; for `O=C(Cc1ccc(C(F)(F)F)c(F)c1)Nc1c(Cl)ccc2c1CCN(C(=O)Cc1ccc(F)cc1)C2` [Compound 3083] it is 0 to 25%.
`CCCc1ccc(C(=O)N2CCc3c(ccc(Cl)c3NC(=O)Cc3ccc(C(F)(F)F)c(F)c3)C2)cc1` [Compound 3084]: the inhibition at 0.3 µM fell in the range of 0 to 25%.
Same read-out and setting: the figure for `O=C(Cc1ccc(C(F)(F)F)c(F)c1)Nc1c(Cl)ccc2c1CCN(C(=O)c1ccc(Cl)c(Cl)c1)C2` [Compound 3086] is 0 to 25%; for `COc1cc(OC)cc(C(=O)N2CCc3c(ccc(Cl)c3NC(=O)Cc3ccc(C(F)(F)F)c(F)c3)C2)c1` [Compound 3087] it is 0 to 25%.
As for `CC(C)C(=O)N1CCc2c(ccc(Cl)c2NC(=O)Cc2ccc(C(F)(F)F)c(F)c2)C1` [Compound 3088], the inhibition at 0.3 µM is 0 to 25%.
With `O=C(Cc1ccc(C(F)(F)F)c(F)c1)Nc1c(Cl)ccc2c1CCN(C(=O)CCc1ccccc1)C2` [Compound 3089], the inhibition at 0.3 µM is 0 to 25%.
Turning to `COc1cccc(C(=O)N2CCc3c(ccc(Cl)c3NC(=O)Cc3ccc(C(F)(F)F)c(F)c3)C2)c1` [Compound 3090], the inhibition at 0.3 µM was 0 to 25%.
Still for that read-out and setting: the result for `O=C(Cc1ccc(C(F)(F)F)c(F)c1)Nc1c(Cl)ccc2c1CCN(C(=O)c1ccc(F)cc1)C2` [Compound 3091] reads 0 to 25%; that for `CC(C)(C)C(=O)N1CCc2c(ccc(Cl)c2NC(=O)Cc2ccc(C(F)(F)F)c(F)c2)C1` [Compound 3092], no less than 76%; that for `O=C(Cc1ccc(C(F)(F)F)c(F)c1)Nc1c(Cl)ccc2c1CCN(C(=O)c1cccc(Cl)c1)C2` [Compound 3093], 0 to 25%.
